Source: publication PMC11802874, “The hypolipidemic effect of MI-883, the combined CAR agonist/ PXR antagonist, in diet-induced hypercholesterolemia model” (Nature Communications, 2025)
Marks after values point to notes of the source that are not given here.

Assay: Pharmacokinetic study after single dose in C57BL/6N mice
Type: in vivo, mouse
Experimental: Pharmacokinetic study of MI-883 in C57BL/6N mice (9–10 weeks old, body weight 20.8 to 24.5 g and average body weight across all groups 22.7 g, SD = 1.1 g) were performed following peroral (p.o.) and intraperitoneal (i.p.) administrations. […] There was also a control group of 4 animals per route. The levels of the parent compound MI-883 were determined by LC-MS/MS in the blood plasma, brain, kidney, liver, muscle (Leg triceps), bile, small intestine, colon, and adipose tissues over time after a single dose of 10 mg/kg. Mice were injected i.p. with 2,2,2-tribromoethanol at a dose of 150 mg/kg prior to drawing the blood. Blood collection was performed from the orbital sinus in BD microtainers tubes containing K2EDTA. Animals were sacrificed by cervical dislocation after the blood samples collection. After this, samples of brain, kidney, liver, muscle (Leg triceps), small intestine, colon, and adipose tissue were collected. Bile samples were taken from the gallbladder of mice. Urine and feces samples were collected using metabolic cages over the course of 1440 min (24 h) after compound administration. All samples were immediately processed, flash-frozen, and stored at –70 °C until subsequent analysis. Detection of the presence of potential metabolites (2-chloro-5-((4-(2-(4-chlorophenyl)-7-fluoroimidazo[1,2-a]pyridin-3-yl)-1H-1,2,3-triazol-1-yl)methyl)-N-methylbenzamide or 2-(4-chlorophenyl)-7-fluoro-3-(1H-1,2,3-triazol-4-yl)imidazo[1,2-a]pyridine) in plasma and tissues was performed. MI-883 was applied in 5%DMSO – 5%PEG300 – 90%corn oil formulation with a final concentration of the compound, 2 mg/ml. Animal treatment and sample preparation were conducted by the Animal Laboratory personnel at Enamine/Bienta.
Plasma samples (50 μl) were mixed with 200 μl of IS400 solution. After mixing by pipetting and centrifuging for 4 min at 6000 rpm, 2 μl of each supernatant was injected into the LC-MS/MS system. Solution of compound IS-19851 (400 ng/ml in acetonitrile-methanol mixture 1:1, v/v) was used as internal standard (IS400) for quantification of MI-883 in blood plasma, liver, kidney, muscle (Leg triceps), small intestine, and colon samples. Liver, kidney, muscle (Leg triceps), colon, and small intestine samples (weight 100 mg ±1 mg) were disintegrated in 500 μl of IS400 using zirconium oxide beads (120 mg ± 5 mg) in The Bullet Blender® homogenizer for 1–3 min at speed 8–12. After this, the samples were centrifuged for 3 min at 14,000 rpm, and 1 μl of each supernatant was injected into the LC-MS/MS system.
Brain and adipose tissue samples (weight 100 mg ± 1 mg) were dispersed in 500 μl of IS400(80) using zirconium oxide beads (120 mg ± 5 mg) in The Bullet Blender® homogenizer for 30 s at speed 8. After this, the samples were centrifuged for 4 min at 14,000 rpm, and 1 μl of each supernatant was injected into the LC-MS/MS system. Solution of compound IS-19851 (400 ng/ml in water-acetonitrile-methanol mixture, 2:4:4, v/v/v) was used as internal standard (IS400(80)) for quantification of MI-883 in the brain, adipose tissue, urine, and bile samples. Urine (cumulative) and bile samples were mixed with IS400(80) solution (1:20, v/v). After mixing by pipetting and centrifuging for 4 min at 6000 rpm, 0.5 μl of each supernatant was injected into the LC-MS/MS system. Cumulative feces samples (114 mg–249 mg) were transferred to BMT-20-S tubes with 4 stainless steel balls, mixed with 20 volumes of IS400(80) solution, and dispersed using ULTRA-TURRAX Tube Drive for 1 min at 3000 rpm within the 30 min thrice. After dispersing and centrifuging for 2 min at 14,000 rpm, 0.5 μl of each supernatant was injected into the LC-MS/MS system.
The concentration of MI-883 in plasma and tissues was determined using a high-performance liquid chromatography/tandem mass spectrometry (HPLC-MS/MS) method. […]

[1] = male, C57BL/6N, mouse, ip, Liver, 10 mg/kg

NC(=O)c1cc(Cn2cc(-c3c(-c4ccc(Cl)cc4)nc4cc(F)ccn34)nn2)ccc1Cl [MI-883, 2-chloro-5-((4-(2-(4-chlorophenyl)-7-fluoroimidazo[1,2-a]pyridin-3-yl)-1H-1,2,3-triazol-1-yl)methyl)benzamide]
expected metabolites (N-methyl, N-dimethyl benzamide, triazolyl-imidazopyridine) in plasma and tissues (10 mg/kg p.o. and i.p.): No expected metabolites
route of excretion (10 mg/kg, C57BL/6N mice): excreted mainly via bile
tissue distribution (10 mg/kg, C57BL/6N mice): significantly distributed into the liver, but not the brain
Peroral bioavailability (%, p.o. vs. i.p.) (estimation based on comparison of AUCs after p.o. and i.p. application, 10 mg/kg): 98.6* %
PK of MI-883: MI-883 i.p. adipose tis. (i.p., time 10): 2064
PK of MI-883: MI-883 i.p. adipose tis. (i.p., time 120): 2083
PK of MI-883: MI-883 i.p. adipose tis. (i.p., time 240): 2267
PK of MI-883: MI-883 i.p. adipose tis. (i.p., time 480): 1643
PK of MI-883: MI-883 i.p. adipose tis. (i.p., time 720): 651
PK of MI-883: MI-883 i.p. bile (i.p., time 10): 347
PK of MI-883: MI-883 i.p. bile (i.p., time 120): 5663
PK of MI-883: MI-883 i.p. bile (i.p., time 240): 6712
PK of MI-883: MI-883 i.p. bile (i.p., time 480): 17332
PK of MI-883: MI-883 i.p. bile (i.p., time 720): 20058
PK of MI-883: MI-883 i.p. brain (i.p., time 10): 20
PK of MI-883: MI-883 i.p. brain (i.p., time 120): 88
PK of MI-883: MI-883 i.p. brain (i.p., time 240): 86
PK of MI-883: MI-883 i.p. brain (i.p., time 480): 62
PK of MI-883: MI-883 i.p. brain (i.p., time 720): 33
PK of MI-883: MI-883 i.p. colon (i.p., time 10): 7473
PK of MI-883: MI-883 i.p. colon (i.p., time 120): 3182
PK of MI-883: MI-883 i.p. colon (i.p., time 240): 3492
PK of MI-883: MI-883 i.p. colon (i.p., time 480): 1531
PK of MI-883: MI-883 i.p. colon (i.p., time 720): 1717
PK of MI-883: MI-883 i.p. feces (i.p., feces, time 1440): 689 ng
PK of MI-883: MI-883 i.p. kidney (i.p., time 10): 1650
PK of MI-883: MI-883 i.p. kidney (i.p., time 120): 4299
PK of MI-883: MI-883 i.p. kidney (i.p., time 240): 6585
PK of MI-883: MI-883 i.p. kidney (i.p., time 480): 3365
PK of MI-883: MI-883 i.p. kidney (i.p., time 720): 1611
PK of MI-883: MI-883 i.p. kidney (i.p., time 1440): 11
PK of MI-883: MI-883 i.p. liver (i.p., time 10): 9584
PK of MI-883: MI-883 i.p. liver (i.p., time 120): 14064
PK of MI-883: MI-883 i.p. liver (i.p., time 240): 10374
PK of MI-883: MI-883 i.p. liver (i.p., time 480): 6478
PK of MI-883: MI-883 i.p. liver (i.p., time 720): 4261
PK of MI-883: MI-883 i.p. liver (i.p., time 1440): 24
PK of MI-883: MI-883 i.p. muscule (i.p., time 10): 114
PK of MI-883: MI-883 i.p. muscule (i.p., time 120): 913
PK of MI-883: MI-883 i.p. muscule (i.p., time 240): 720
PK of MI-883: MI-883 i.p. muscule (i.p., time 480): 687
PK of MI-883: MI-883 i.p. muscule (i.p., time 720): 320
PK of MI-883: MI-883 i.p. small intestine (i.p., time 10): 10141
PK of MI-883: MI-883 i.p. small intestine (i.p., time 120): 7374
PK of MI-883: MI-883 i.p. small intestine (i.p., time 240): 4886
PK of MI-883: MI-883 i.p. small intestine (i.p., time 480): 1858
PK of MI-883: MI-883 i.p. small intestine (i.p., time 720): 873
PK of MI-883: MI-883 i.p (i.p., time 10): 565
PK of MI-883: MI-883 i.p (i.p., time 120): 5532
PK of MI-883: MI-883 i.p (i.p., time 240): 3130
PK of MI-883: MI-883 i.p (i.p., time 480): 2314
PK of MI-883: MI-883 i.p (i.p., time 720): 1008
PK of MI-883: MI-883 i.p (i.p., time 1440): 1
Cmax [1]: 14.1 µg/mL
Tmax [1]: 0.5 h
half-life [1]: 2.53 h
Cmax (male, C57BL/6N, mouse, ip, Plasma, 10 mg/kg): 5.53 µg/mL
Vd (male, C57BL/6N, mouse, plasma, 10 mg/kg, calculated from data after a single dose application, read-out: volume of distribution (Vd) in mice): 0.06 L
Cmax (male, C57BL/6N, mouse, po, Liver, 10 mg/kg): 14.9 µg/mL
